Measured values reported in patent US10577363B2, “Substituted piperidine compounds” (EPIZYME, INC., priority 2014, dated 2020).

Tests used:
SMYD3 [1] = target: T1, SMYD3 (Homo sapiens (Human), UniProt Q9H7B4); assay: SMYD3 cell assay (Trimethyl-MEKK2 In-Cell Western in 293T/17 cells); assay type: cell-based; conditions: read-out: SMYD3 Cell IC50
Outline: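 In-Cell Western readout: methanol-fixed cells stained for trimethyl-MEKK2 and flag tag, ratio per well normalized to DMSO and background controls.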

SMYD3 [2] = target: T1, SMYD3; assay: SMYD3 biochemical assay (SPA, 3H-SAM methylation of MEKK2 protein substrate); conditions: read-out: SMYD3 Biochem IC50
Outline: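 Methylation of N-terminally GST-tagged MEKK2 by untagged full-length human SMYD3, using 3H-SAM, in pH 8.0 Tris buffer with TCEP, BSG and Tween 20; enzyme and compound sat 30 min at room temperature before substrate addition. Stopped with 100 uM (final) cold SAM; incorporation read by scintillation proximity as dpm/cpm.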

T1 sequence (Q9H7B4 whole entry): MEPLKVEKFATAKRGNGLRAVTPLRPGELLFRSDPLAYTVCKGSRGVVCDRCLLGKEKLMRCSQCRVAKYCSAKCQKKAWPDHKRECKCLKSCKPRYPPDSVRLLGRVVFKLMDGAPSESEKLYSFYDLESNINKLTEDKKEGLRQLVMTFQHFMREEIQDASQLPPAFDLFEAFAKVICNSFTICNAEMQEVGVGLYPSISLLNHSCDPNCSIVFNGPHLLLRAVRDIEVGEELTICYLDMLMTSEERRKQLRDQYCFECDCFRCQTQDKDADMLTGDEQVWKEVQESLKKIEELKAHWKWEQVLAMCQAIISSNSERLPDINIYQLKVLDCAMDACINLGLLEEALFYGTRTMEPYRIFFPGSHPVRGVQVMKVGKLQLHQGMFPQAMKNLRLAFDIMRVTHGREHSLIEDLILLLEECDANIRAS

Row | SMILES | IC50 (SMYD3 [1]; Table 2A) [nM] | IC50 (SMYD3 [2]; Table 2A) [nM] | IC50 (SMYD3 [1]; average of n = 1 to n = 50) [nM] | IC50 (SMYD3 [2]; average of n = 1 to n = 50) [nM]
1 | C[C@H]1CNCCN1S(=O)(=O)N1CC[C@H](NC(=O)c2cc(C3CC3)on2)C[C@@H]1C [compound 624, 5-cyclopropyl-N-((2S,4S)-2-methyl-1-(((S)-2-methylpiperazin-1-yl)sulfonyl)piperidin-4-yl)isoxazole-3-carboxamide] | 284 | 24.6 |  | 
2 | C[C@H]1CN(S(=O)(=O)CCCNCc2ccccc2)[C@@H](C)C[C@H]1NC(=O)c1cc(C2CC2)on1 [compound 628, N-((2S,4R,5S)-1-((3-(benzylamino)propyl)sulfonyl)-2,5-dimethylpiperidin-4-yl)-5-cyclopropylisoxazole-3-carboxamide] |  |  | 577 | 27.3
3 | C[C@H]1C[C@@H](NC(=O)c2cc(C3CC3)on2)CCN1S(=O)(=O)CCCNCC1CC1 [compound 630, 5-cyclopropyl-N-((2S,4S)-1-((3-((cyclopropylmethyl)amino)propyl)sulfonyl)-2-methylpiperidin-4-yl)isoxazole-3-carboxamide] |  |  | 396 | 29.4
4 | C[C@H]1C[C@@H](NC(=O)c2cc(C3CC3)on2)CCN1S(=O)(=O)N1CC2CCC1CN2C (stereo partly drawn) [compound 631, 5-cyclopropyl-N-((2S,4S)-2-methyl-1-((5-methyl-2,5-diazabicyclo[2.2.2]octan-2-yl)sulfonyl)piperidin-4-yl)isoxazole-3-carboxamide] |  |  | 298 | 29.8
5 | C[C@H]1CN(S(=O)(=O)CC2CCNCC2)[C@@H](C)C[C@H]1NC(=O)c1cc(C2CC2)on1 [compound 632, 5-cyclopropyl-N-((2S,4R,5S)-2,5-dimethyl-1-((piperidin-4-ylmethyl)sulfonyl)piperidin-4-yl)isoxazole-3-carboxamide] |  |  | 229 | 30.4
6 | C[C@H]1C[C@@H](NC(=O)c2cc(C3CC3)on2)CCN1S(=O)(=O)CCCNCC(C)(C)C [compound 635, 5-cyclopropyl-N-((2S,4S)-2-methyl-1-((3-(neopentylamino)propyl)sulfonyl)piperidin-4-yl)isoxazole-3-carboxamide] |  |  | 318 | 32.5
7 | CCC1CN(S(=O)(=O)N2[C@@H]3CC[C@H]2C[C@@H](NC(=O)c2cc(C4CC4)on2)C3)CCN1 (stereo partly drawn) [compound 636, 5-cyclopropyl-N-((1R,3r,5S)-8-((3-ethylpiperazin-1-yl)sulfonyl)-8-azabicyclo[3.2.1]octan-3-yl)isoxazole-3-carboxamide] |  |  | 365 | 33.2
8 | CN1CCN(S(=O)(=O)N2[C@@H]3CC[C@H]2C[C@@H](NC(=O)c2cc(C4CC4)on2)C3)CC1 [compound 641, 5-cyclopropyl-N-((1R,3r,5S)-8-((4-methylpiperazin-1-yl)sulfonyl)-8-azabicyclo[3.2.1]octan-3-yl)isoxazole-3-carboxamide] |  |  | 188 | 36.3
9 | O=C(N[C@H]1C[C@H]2CC[C@@H](C1)N2S(=O)(=O)N1CCNC(CO)C1)c1cc(C2CC2)on1 (stereo partly drawn) [compound 643, 5-cyclopropyl-N-((1R,3r,5S)-8-((3-(hydroxymethyl)piperazin-1-yl)sulfonyl)-8-azabicyclo[3.2.1]octan-3-yl)isoxazole-3-carboxamide] |  |  | 211 | 37.8
10 | C[C@H]1CN(S(=O)(=O)NC2CCNCC2)CC[C@H]1NC(=O)c1cc(C2CC2)on1 [compound 646, 5-cyclopropyl-N-((3S,4R)-3-methyl-1-(N-(piperidin-4-yl)sulfamoyl)piperidin-4-yl)isoxazole-3-carboxamide] |  |  | 755 | 45.2
11 | O=C(N[C@H]1CCN(S(=O)(=O)CC2CCNCC2)[C@@H](Cc2ccccc2)C1)c1cc(C2CC2)on1 [compound 647, N-((2S,4S)-2-benzyl-1-((piperidin-4-ylmethyl)sulfonyl)piperidin-4-yl)-5-cyclopropylisoxazole-3-carboxamide] |  |  | 809 | 45.5
12 | CNCCS(=O)(=O)N1[C@@H]2CC[C@H]1C[C@@H](NC(=O)c1cc(C3CC3)on1)C2 [compound 649, 5-cyclopropyl-N-((1R,3r,5S)-8-((2-(methylamino)ethyl)sulfonyl)-8-azabicyclo[3.2.1]octan-3-yl)isoxazole-3-carboxamide] |  |  | 261 | 47.2
13 | C[C@H]1C[C@@H](NC(=O)c2cc(C3CC3)on2)CCN1S(=O)(=O)NCCN [compound 650, N-((2S,4S)-1-(N-(2-aminoethyl)sulfamoyl)-2-methylpiperidin-4-yl)-5-cyclopropylisoxazole-3-carboxamide] |  |  | 4630 | 49.1
14 | CN(C)C1CCN(CCS(=O)(=O)N2[C@@H]3CC[C@H]2C[C@@H](NC(=O)c2cc(C4CC4)on2)C3)C1 (stereo partly drawn) [compound 651, 5-cyclopropyl-N-((1R,3r,5S)-8-((2-(3-(dimethylamino)pyrrolidin-1-yl)ethyl)sulfonyl)-8-azabicyclo[3.2.1]octan-3-yl)isoxazole-3-carboxamide] |  |  | 532 | 50.6

Second part, the molecule after the results:

Row | IC50 (SMYD3 [1]; Table 2A) [nM] | IC50 (SMYD3 [2]; Table 2A) [nM] | IC50 (SMYD3 [1]; average of n = 1 to n = 50) [nM] | IC50 (SMYD3 [2]; average of n = 1 to n = 50) [nM] | SMILES
15 | 224 | 25.3 |  |  | C[C@H]1CN(S(=O)(=O)CC2CCN(C)CC2)CC[C@H]1NC(=O)c1cc(C2CC2)on1 [compound 625, 5-cyclopropyl-N-((3S,4R)-3-methyl-1-(((1-methylpiperidin-4-yl)methyl)sulfonyl)piperidin-4-yl)isoxazole-3-carboxamide]
16 | 157 | 25.3 |  |  | C[C@H]1C[C@@H](NC(=O)c2cc(C3CC3)on2)CCN1S(=O)(=O)N1C[C@H]2C[C@@H]1CN2C [compound 626, 5-cyclopropyl-N-((2S,4S)-2-methyl-1-(((1R,4R)-5-methyl-2,5-diazabicyclo[2.2.1]heptan-2-yl)sulfonyl)piperidin-4-yl)isoxazole-3-carboxamide]
17 |  |  | 243 | 26.5 | C[C@H]1CN(S(=O)(=O)c2ccc(C(C)(C)N)cc2)CC[C@H]1NC(=O)c1cc(C2CC2)on1 [compound 627, N-((3S,4R)-1-((4-(2-aminopropan-2-yl)phenyl)sulfonyl)-3-methylpiperidin-4-yl)-5-cyclopropylisoxazole-3-carboxamide]
18 |  |  | 407 | 28.2 | C[C@@H]1CN(S(=O)(=O)CC2CCNCC2)[C@H](C)C[C@@H]1NC(=O)c1cc(C2CC2)on1 [compound 629, 5-cyclopropyl-N-((2R,4S,5R)-2,5-dimethyl-1-((piperidin-4-ylmethyl)sulfonyl)piperidin-4-yl)isoxazole-3-carboxamide]
19 |  |  | 291 | 30.4 | CC(C)NCCCS(=O)(=O)N1CC[C@H](NC(=O)c2cc(C3CC3)on2)C[C@@H]1C [compound 633, 5-cyclopropyl-N-((2S,4S)-1-((3-(isopropylamino)propyl)sulfonyl)-2-methylpiperidin-4-yl)isoxazole-3-carboxamide]
20 |  |  | 176 | 31.8 | C[C@@H]1CN(S(=O)(=O)N2CC[C@H](NC(=O)c3cc(C4CC4)on3)C[C@@H]2C)CCN1 [compound 634, 5-cyclopropyl-N-((2S,4S)-2-methyl-1-(((R)-3-methylpiperazin-1-yl)sulfonyl)piperidin-4-yl)isoxazole-3-carboxamide]
21 |  |  | 203 | 33.4 | C[C@H]1CN(S(=O)(=O)N2CCNCC2)[C@@H](C)C[C@H]1NC(=O)c1cc(C2CC2)on1 [compound 637, 5-cyclopropyl-N-((2S,4R,5S)-2,5-dimethyl-1-(piperazin-1-ylsulfonyl)piperidin-4-yl)isoxazole-3-carboxamide]
22 |  |  | 254 | 33.7 | C[C@H]1C[C@@H](NC(=O)c2cc(C3CC3)on2)CCN1S(=O)(=O)N1CCNC(C)(C)C1 [compound 638, 5-cyclopropyl-N-((2S,4S)-1-((3,3-dimethylpiperazin-1-yl)sulfonyl)-2-methylpiperidin-4-yl)isoxazole-3-carboxamide]
23 |  |  | 258 | 34.8 | C[C@H]1C[C@@H](NC(=O)c2cc(C3CC3)on2)CCN1S(=O)(=O)N1CCCN(C)CC1 [compound 639, 5-cyclopropyl-N-((2S,4S)-2-methyl-1-((4-methyl-1,4-diazepan-1-yl)sulfonyl)piperidin-4-yl)isoxazole-3-carboxamide]
24 |  |  | 480 | 35.7 | CC(C)CNCCCS(=O)(=O)N1CC[C@H](NC(=O)c2cc(C3CC3)on2)C[C@@H]1C [compound 640, 5-cyclopropyl-N-((2S,4S)-1-((3-(isobutylamino)propyl)sulfonyl)-2-methylpiperidin-4-yl)isoxazole-3-carboxamide]
25 |  |  | 571 | 37.6 | C[C@@H]1CN(S(=O)(=O)CCCN)[C@H](C)C[C@@H]1NC(=O)c1cc(C2CC2)on1 [compound 642, N-((2R,4S,5R)-1-((3-aminopropyl)sulfonyl)-2,5-dimethylpiperidin-4-yl)-5-cyclopropylisoxazole-3-carboxamide]
26 |  |  | 303 | 41.3 | C[C@@H]1C[C@H](NC(=O)c2cc(C3CC3)on2)CCN1C(=O)c1ccc(C2CCNCC2)cc1 [compound 644, 5-cyclopropyl-N-((2R,4R)-2-methyl-1-(4-(piperidin-4-yl)benzoyl)piperidin-4-yl)isoxazole-3-carboxamide]
27 |  |  | 575 | 44.4 | C[C@H]1C[C@@H](NC(=O)c2cc(C3CC3)on2)CCN1S(=O)(=O)CCCNC(c1ccccc1)c1ccccc1 [compound 645, N-((2S,4S)-1-((3-(benzhydrylamino)propyl)sulfonyl)-2-methylpiperidin-4-yl)-5-cyclopropylisoxazole-3-carboxamide]
28 |  |  | 331 | 46.8 | COCCCN1CCC(CS(=O)(=O)N2CC[C@@H](NC(=O)c3cc(C4CC4)on3)[C@@H](C)C2)CC1 [compound 648, 5-cyclopropyl-N-((3S,4R)-1-(((1-(3-methoxypropyl)piperidin-4-yl)methyl)sulfonyl)-3-methylpiperidin-4-yl)isoxazole-3-carboxamide]
